Reference: patent US6730666B1, “Pharmaceutical compositions comprising porphyrins and some novel porphyrin derivatives” (Yeda Research and Development Co. Ltd., priority 1998, dated 2004)

How the values were obtained:
[1] = tested on: microvascular tubules sprouting from rat aorta sections; test: Rat aorta in vitro angiogenesis assay (collagen gel, bFGF-induced); type: cell-based
Description: (vi) Rat aorta in vitro angiogenesis assay. Rings of rat aorta sections were immobilized in a three-dimensional collagen gel, in the presence of serum free growth medium (D/MEM) (Nicosia & Ottinetti, 1990). Porphyrin or corrole compound and bFGF (2 ng/ml) were added to the growth medium twice a week when indicated. After 14 days the cultures were fixed, and the extent of microvascular endothelial tube outgrowth was measured under a light microscope (Miao et al., 1997).
The effect of P1 was further examined in a biological assay for angiogenesis in vitro. Angiogenic vascularization is a process in which bFGF is known to play a pivotal role (Folkman, 1989). To examine the inhibitory effects of the porphyrin on bFGF-promoted angiogenesis, we employed an in vitro angiogenic assay using rat aorta sections embedded in a collagen gel (Methods, section (vi)). The assay measures the extent of endothelial cell growth and microvascular tubules sprouting from the vessel tissue embedded in the gel. Basal tubule formation can be detected even when no additional factors are added.

[2] = target: EGF tyrosine kinase receptor (Homo sapiens, UniProt P00533); test: Binding of EGF to its high affinity tyrosine kinase receptor
EGF tyrosine kinase receptor, sequence (P00533 25-1210): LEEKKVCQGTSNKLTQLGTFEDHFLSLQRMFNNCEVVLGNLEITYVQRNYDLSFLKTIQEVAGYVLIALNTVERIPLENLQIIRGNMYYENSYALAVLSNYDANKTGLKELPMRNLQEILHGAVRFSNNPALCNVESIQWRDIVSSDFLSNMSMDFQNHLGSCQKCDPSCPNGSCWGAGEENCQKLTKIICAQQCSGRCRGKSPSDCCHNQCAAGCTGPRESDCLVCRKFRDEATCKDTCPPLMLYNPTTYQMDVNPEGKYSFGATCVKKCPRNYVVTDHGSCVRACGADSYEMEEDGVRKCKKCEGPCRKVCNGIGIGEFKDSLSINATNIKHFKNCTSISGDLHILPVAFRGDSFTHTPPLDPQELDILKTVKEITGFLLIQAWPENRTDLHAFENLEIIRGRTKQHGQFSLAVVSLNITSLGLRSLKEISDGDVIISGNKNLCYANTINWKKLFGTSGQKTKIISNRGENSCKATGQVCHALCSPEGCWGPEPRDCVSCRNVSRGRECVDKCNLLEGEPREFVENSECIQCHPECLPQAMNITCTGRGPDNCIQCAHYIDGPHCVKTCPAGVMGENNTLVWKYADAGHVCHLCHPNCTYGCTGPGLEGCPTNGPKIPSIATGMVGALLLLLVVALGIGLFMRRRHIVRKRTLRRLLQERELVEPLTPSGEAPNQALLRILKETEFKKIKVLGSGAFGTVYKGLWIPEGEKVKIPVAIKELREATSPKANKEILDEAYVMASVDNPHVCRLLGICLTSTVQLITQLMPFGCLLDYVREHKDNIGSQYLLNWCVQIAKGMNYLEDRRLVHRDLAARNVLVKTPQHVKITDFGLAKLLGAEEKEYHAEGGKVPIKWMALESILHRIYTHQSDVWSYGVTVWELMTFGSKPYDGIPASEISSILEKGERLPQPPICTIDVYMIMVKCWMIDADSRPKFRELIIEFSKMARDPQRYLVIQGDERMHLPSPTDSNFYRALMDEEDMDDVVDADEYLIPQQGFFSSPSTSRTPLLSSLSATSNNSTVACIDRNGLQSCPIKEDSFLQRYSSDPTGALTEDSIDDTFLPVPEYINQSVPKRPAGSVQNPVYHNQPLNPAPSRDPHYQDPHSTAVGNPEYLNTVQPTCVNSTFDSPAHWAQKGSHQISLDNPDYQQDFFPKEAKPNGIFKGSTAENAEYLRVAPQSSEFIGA

[3] = tested on: NIH 3T3 cells expressing signal peptide bFGF; test: Tumor formation induced by signal peptide bFGF expressing NIH 3T3 cells in nude mice; type: in vivo, Balb/C nude mice; details: free P1, 25 μg/g of body mass IP twice a week, after 4 weeks
Description: (v) Inhibition by porphyrins of tumor formation induced by signal peptide bFGF expressing cells NIH 3T3 cells expressing signal peptide bFGF were injected subcutaneously to Balb/C nude mice as described (Yayon and Klagsbrun, 1990). Porphyrin/corrole compound at 25 μg/g of body mass was injected IP (intraperitoneally) twice a week and after 4 weeks the tumor size was measured.
After establishing the ability of P1 to inhibit FGF biological activity in vitro, the capacity of P1 to inhibit bFGF-induced tumor growth and metastasis was evaluated in vivo. First, the inhibition of tumor growth induced by signal peptide bFGF in a nude mice model was measured (Methods, section (v)). Upon addition of a signal peptide residue to bFGF, the protein is capable of transforming NIH 3T3 cells which, when injected to nude mice, grow and form a tumor Rayon & Klagsbrun, 1990). NIH 3T3 cells expressing signal peptide bFGF were injected subcutaneously to Balb/C nude mice, and P1 either free or liposome incorporated (as described by Jori and Reddi, 1993) (25 μg/g of body mass) were given twice a week by intraperitoneal injection.

[4] = target: T1, flt-1 VEGF receptor AP fusion protein (Homo sapiens, UniProt P17948); test: Binding of soluble VEGF receptor flt-1-AP fusion protein to immobilized VEGF; details: FIG. 10B; read-out: IC50, inhibition of flt-1-AP binding to immobilized VEGF
T1 construct: soluble VEGF receptor flt-1-AP fusion protein; made in house
T1 sequence (P17948 27-758 limits assumed): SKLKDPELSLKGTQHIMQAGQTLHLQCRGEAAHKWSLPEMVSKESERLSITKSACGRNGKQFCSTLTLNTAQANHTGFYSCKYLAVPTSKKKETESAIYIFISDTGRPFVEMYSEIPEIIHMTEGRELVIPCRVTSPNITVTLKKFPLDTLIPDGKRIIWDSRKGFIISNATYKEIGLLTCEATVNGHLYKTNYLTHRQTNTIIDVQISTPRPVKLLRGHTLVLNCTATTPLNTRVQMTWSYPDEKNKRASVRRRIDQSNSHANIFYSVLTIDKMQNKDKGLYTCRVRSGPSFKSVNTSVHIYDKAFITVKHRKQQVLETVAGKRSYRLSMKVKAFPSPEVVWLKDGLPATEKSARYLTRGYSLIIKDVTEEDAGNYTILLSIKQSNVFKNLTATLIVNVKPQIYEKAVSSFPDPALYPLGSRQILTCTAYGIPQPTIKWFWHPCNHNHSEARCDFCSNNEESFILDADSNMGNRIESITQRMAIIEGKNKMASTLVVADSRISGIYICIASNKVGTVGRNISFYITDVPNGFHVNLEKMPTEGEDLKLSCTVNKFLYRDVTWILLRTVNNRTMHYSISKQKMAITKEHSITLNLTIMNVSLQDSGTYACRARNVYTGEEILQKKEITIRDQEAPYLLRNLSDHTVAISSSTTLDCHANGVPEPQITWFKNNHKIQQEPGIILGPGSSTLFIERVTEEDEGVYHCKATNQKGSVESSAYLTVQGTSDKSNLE
Excerpt: ix) Binding of soluble VEGF receptor alkaline phosphatase fusion protein to immobilized VEGF. The flt-1 VEGF receptor was expressed as a fusion protein with AP as previously described (Roeckl et al, 1998) and tested for its binding capacity to immobilized VEGF as described in method (ii) above for the FGF receptor.

ERK = ERK phosphorylation in FGFR-3 expressing cells induced by FGF-9; type: cell-based; details: FIG. 15B
Description: (§1) (viii) Immunoblots. To the overnight serum-starved cells (2 plates for each treatment), 500 μl of F12^++ medium were added which either contained or not the respective porphyrin or corrole compound in a final concentration of […] for 40 min at 37° C. One of the two plates of each treatment was then stimulated with FGF9 (+) (75 ng/ml) and to the second plate only medium (−) was added for 10 min at 37° C. The cells were washed twice with PBS. 600 μl of SBN lysis buffer containing 1% NP-40 and 1 mM vanadate were added and left on ice for 10 min. The plates were then scraped and left on ice for additional 10 min. The lysate was span down in Eppendorf centrifuge for 15 min, 15000 rpm at 4° C. The supernatants were kept and Bradford protein determinant on assay was performed in the samples. 500 μg protein from each sample were taken for immunoprecipitation with 7.5 μl antibody against FGFR-3, 4 hr at 4° C.
(§2) These findings support the notion that the porphyrins can serve for treating FGFR-3 related growth disorders. ERK1 and ERK2 are two isoforms of ERK.

FGF receptor = FGF receptor (Mus musculus, UniProt P16092); test: In vitro inhibition of bFGF binding (assay format not stated); details: inhibition of bFGF binding
FGF receptor, sequence (P16092 22-822): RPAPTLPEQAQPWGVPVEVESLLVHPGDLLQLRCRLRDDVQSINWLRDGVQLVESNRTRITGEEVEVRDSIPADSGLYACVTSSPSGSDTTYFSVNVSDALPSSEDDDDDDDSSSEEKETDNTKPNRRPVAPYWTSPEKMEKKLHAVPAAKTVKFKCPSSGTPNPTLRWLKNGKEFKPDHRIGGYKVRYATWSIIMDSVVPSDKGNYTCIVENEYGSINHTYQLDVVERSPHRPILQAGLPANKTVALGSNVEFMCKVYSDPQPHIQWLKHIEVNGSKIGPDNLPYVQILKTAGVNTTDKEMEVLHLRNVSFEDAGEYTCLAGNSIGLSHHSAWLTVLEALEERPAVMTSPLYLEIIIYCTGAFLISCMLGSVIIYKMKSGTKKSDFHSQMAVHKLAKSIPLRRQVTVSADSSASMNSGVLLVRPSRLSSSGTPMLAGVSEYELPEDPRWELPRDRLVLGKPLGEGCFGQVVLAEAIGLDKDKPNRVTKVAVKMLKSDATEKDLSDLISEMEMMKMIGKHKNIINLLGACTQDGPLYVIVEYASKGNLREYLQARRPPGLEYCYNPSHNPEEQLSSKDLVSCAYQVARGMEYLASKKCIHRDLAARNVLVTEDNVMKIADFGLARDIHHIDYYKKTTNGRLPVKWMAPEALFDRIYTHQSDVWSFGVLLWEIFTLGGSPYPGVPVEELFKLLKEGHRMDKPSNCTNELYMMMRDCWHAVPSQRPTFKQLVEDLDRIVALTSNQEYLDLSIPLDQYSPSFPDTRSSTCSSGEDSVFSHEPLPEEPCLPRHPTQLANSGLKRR

PLC-γ = PLC-γ phosphorylation in FGFR-3 expressing cells induced by FGF-9; type: cell-based; details: FIG. 15A
Description: as §1, §2

C[n+]1ccc(-c2c3nc(c(-c4cc[n+](C)cc4)c4ccc([nH]4)c(-c4cc[n+](C)cc4)c4nc(c(-c5cc[n+](C)cc5)c5ccc2[nH]5)C=C4)C=C3)cc1 [Compound P1, 5,10,15,20-Tetrakis(N-methyl-4-pyridylium)-21H,23H-porphine tetra-p-tosylate]
Effect on bFGF-induced endothelial cell growth ([1]; 10 μM, with 2 ng/ml bFGF): dramatically reduced the extent of endothelial cell growth
Effect on microvascular tubules ([1]; 100 μl P1, with 2 ng/ml bFGF): complete inhibition of microvascular tubules
Inhibition of EGF binding to its receptor [2]: does not inhibit
Inhibition of tumor formation in nude mice, in words [3]: clear inhibition of tumor formation
IC50 [4]: ~40 nM

C[n+]1ccc(-c2c3nc(c(-c4cc[n+](C)cc4)c4ccc([nH]4)c(-c4c(F)c(F)c(F)c(F)c4F)c4nc(c(-c5cc[n+](C)cc5)c5ccc2[nH]5)C=C4)C=C3)cc1.[I-].[I-].[I-] [Compound P16, 5-Pentafluorophenyl-10,15,20-tris(N-methyl-4-pyridylium)-21H,23H-porphine triiodide]
Effect on ERK activation (ERK): clear reduction in the activation
Activity in vitro relative to P1 (fold) (FGF receptor): about 50 fold
Effect on PLC-γ activation (PLC-γ): clear reduction in the activation
